Measured values taken from US7452887B2, “Quinoline- and isoquinoline-based compounds exhibiting ATP-utilizing enzyme inhibitory activity, and compositions, and uses thereof” (Amphora Discovery Corporation, priority 2004, dated 2008).

Legend:
Assay in all cases: HTS ATP-utilizing enzyme assay, off-chip mobility-shift (Caliper HTS 250)
Format in all cases: biochemical
Conditions in all cases: test compound 10 μM, kinase listed = active (greater than six-sigma from the mean activity of inactive compounds)
[1] = biological target: T1, PRAK (Homo sapiens, UniProt Q8IW41)
T1 sequence (Q8IW41 1-473): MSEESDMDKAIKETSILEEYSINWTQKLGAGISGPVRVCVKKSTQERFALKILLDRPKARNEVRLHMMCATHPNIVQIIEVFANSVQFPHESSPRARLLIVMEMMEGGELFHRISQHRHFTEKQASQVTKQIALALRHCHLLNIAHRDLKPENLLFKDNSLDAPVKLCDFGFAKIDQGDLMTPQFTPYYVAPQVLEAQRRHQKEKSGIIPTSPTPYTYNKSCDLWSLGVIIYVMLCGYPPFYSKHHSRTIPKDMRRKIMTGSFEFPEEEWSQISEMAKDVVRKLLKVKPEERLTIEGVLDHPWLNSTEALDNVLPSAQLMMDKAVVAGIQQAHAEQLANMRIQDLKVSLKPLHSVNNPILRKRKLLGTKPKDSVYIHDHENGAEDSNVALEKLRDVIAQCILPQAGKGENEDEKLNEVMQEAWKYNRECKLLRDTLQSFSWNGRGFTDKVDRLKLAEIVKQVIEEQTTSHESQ
Excerpt: (§1) The following procedures describe the reagent and plate preparation for a HTS of an ATP-utilizing enzyme, such as a protein kinase, run in an off-chip mobility-shift assay format. The following provides an HTS protocol for running a protein kinase HTS screen on a Caliper HTS 250 microfluidics system. The following parameters are dependent on the protein kinase used and can be determined by one skilled in the art as part of a typical assay development process. For example, the peptide substrate used can be identified from the current literature, by screening a peptide library of potential protein kinase substrates, or by other applicable means accepted in the field.
(§2) The following table provides typical screen assay parameters appropriate for a Caliper HTS 250 microfluidics system.
(§3) The reagents and buffers listed in the following table are generally applicable for developing and running an HTS screen on a human protein kinase using the Caliper HTS 250 system.
(§4) The following reagents were prepared using the previously described buffers.
(§5) A 2× Master Buffer solution was prepared by combining 200 mL of 1 M HEPES, pH 7.5, 2 mL of 10% Triton X-100, 20 mL of 10% BSA, and 778 mL of H2O.
(§6) A 2.5× Substrate Buffer solution was prepared by combining 177.408 mL of 2× Master Buffer, 0.887 mL of 1 mM peptide-X, and 176.521 mL of H2O.
(§7) A 1.55× Termination Buffer solution was prepared by combining 762.05 mL of 2× Master Buffer, 95.1 mL of 0.5 M EDTA, and 666.94 mL of H2O.
(§8) A TCB Buffer solution was prepared by combining 125 mL of 2× Master Buffer, 10 mL of 0.5 M EDTA, 6.25 mL of 4% coating reagent, 1.01 mL of 100% DMSO, and 107.74 mL H2O.
(§9) A Dye Trough solution was prepared by combining 0.5 μL of peptide-X, and 2,999.5 μL of IX Master Buffer.
(§10) A 1.06× Assay Buffer solution was prepared by combining 205.15 mL of 2× Master Buffer, and 181.92 mL of H2O.
(§11) Assays to determine the kinase inhibitory activity of compounds of the present disclosure were performed using a Caliper HTS 250 microfluidics device, Greiner U-bottom assay plates, a Multidrop for transfer of reagents, and Biomek FX (AMNCBM03) software. Initially, 2.4 μL of a 1 mM solution of a test compound in 100% DMSO was added to a well of the Greiner U-bottom plate. A single Greiner U-bottom plate having 24×16 wells could include multiple test compounds. Next, […] of 1.06× Assay Buffer was added to each well of the assay plate. Using the Biomek FX, 10 μL of 0.5 M EDTA was added by the span-8 to wells, indicated as 100% Control and 2.4 μL of 100% DMSO was added by the span-8 to wells, indicated as 0% Control. Using the Multidrop, 10 μL of 2.5× Enzyme Buffer, followed by 10 μL of 2.5× Substrate Buffer was added to each well of the assay plate. The total reaction volume in each well was 25 μL, and the concentration of the test compound was 10 μM. The assay plate was incubated for 2.5 hrs at 20° C. to 22° C. After the incubation period, using the Multidrop, 45 μL of 1.55× Termination Buffer was added to each well of the assay plate to stop the reaction. The inhibition of the ATP-utilizing enzyme, such as a particular protein kinase, was determined by measuring the ratio of the peptide substrate to phosphorylated product for each well of the assay plate using the Caliper HTS 250 system.
(§12) The use of six-sigma statistical limits represents a conservative method for declaring potential hits among targets. The six-sigma activity, as well as the mean population activity, can be different for each target enzyme. This method has an expected false positive rate, from an in-control measurement process, of one in one million.

[2] = biological target: CHEK2 (Homo sapiens, UniProt O96017)
Excerpt: as §1, §2, §3, §4, §5, §6, §7, §8, §9, §10, §11, §12

[3] = biological target: T2, NEK2 (Homo sapiens, UniProt P51955)
T2 sequence (P51955 1-445): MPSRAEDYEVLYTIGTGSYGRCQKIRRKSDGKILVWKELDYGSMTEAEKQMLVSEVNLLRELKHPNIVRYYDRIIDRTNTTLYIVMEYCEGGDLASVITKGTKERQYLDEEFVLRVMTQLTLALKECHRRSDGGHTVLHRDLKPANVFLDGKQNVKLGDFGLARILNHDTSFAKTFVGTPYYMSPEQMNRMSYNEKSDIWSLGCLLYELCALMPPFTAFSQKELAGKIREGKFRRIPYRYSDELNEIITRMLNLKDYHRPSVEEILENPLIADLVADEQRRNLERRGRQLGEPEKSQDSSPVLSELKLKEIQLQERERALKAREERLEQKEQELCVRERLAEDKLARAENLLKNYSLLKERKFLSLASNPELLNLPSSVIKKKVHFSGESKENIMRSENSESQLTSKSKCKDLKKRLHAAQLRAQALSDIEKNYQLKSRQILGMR
Excerpt: as §1, §2, §3, §4, §5, §6, §7, §8, §9, §10, §11, §12

[4] = biological target: MAPKAPK2 (Homo sapiens, UniProt P49137)
Method in brief: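 Phosphorylation of a peptide substrate was quantified by Caliper mobility-shift separation of substrate and product after 2.5 h at 20-22 °C, with compounds tested at 10 μM. Inhibition was normalized to EDTA-quenched (100%) and DMSO (0%) controls; six-sigma thresholds flagged actives.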

[5] = biological target: T3, DYRK2 (Homo sapiens, UniProt Q92630)
T3 sequence (Q92630 1-601): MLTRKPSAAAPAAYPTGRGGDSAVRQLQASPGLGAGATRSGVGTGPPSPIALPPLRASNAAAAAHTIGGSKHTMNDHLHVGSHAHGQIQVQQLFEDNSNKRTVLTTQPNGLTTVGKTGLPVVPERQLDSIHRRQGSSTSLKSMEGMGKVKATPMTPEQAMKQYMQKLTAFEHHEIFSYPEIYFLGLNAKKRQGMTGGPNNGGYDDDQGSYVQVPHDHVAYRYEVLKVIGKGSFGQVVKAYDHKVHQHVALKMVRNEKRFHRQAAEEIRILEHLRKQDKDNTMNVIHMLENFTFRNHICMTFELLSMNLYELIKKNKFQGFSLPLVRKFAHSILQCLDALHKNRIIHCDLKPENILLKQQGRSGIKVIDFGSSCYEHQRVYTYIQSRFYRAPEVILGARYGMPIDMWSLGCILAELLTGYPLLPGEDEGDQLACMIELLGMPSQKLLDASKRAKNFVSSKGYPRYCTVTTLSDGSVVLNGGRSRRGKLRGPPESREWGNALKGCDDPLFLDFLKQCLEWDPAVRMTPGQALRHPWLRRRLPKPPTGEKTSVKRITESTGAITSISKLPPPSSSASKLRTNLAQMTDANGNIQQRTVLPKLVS
Excerpt: as §1, §2, §3, §4, §5, §6, §7, §8, §9, §10, §11, §12

[6] = biological target: C-TAK1 (Homo sapiens, UniProt P27448)
Excerpt: as §1, §2, §3, §4, §5, §6, §7, §8, §9, §10, §11, §12

[7] = biological target: KIT (Homo sapiens, UniProt P10721)
Excerpt: as §1, §2, §3, §4, §5, §6, §7, §8, §9, §10, §11, §12

Chain of CHEK2 (O96017 whole entry): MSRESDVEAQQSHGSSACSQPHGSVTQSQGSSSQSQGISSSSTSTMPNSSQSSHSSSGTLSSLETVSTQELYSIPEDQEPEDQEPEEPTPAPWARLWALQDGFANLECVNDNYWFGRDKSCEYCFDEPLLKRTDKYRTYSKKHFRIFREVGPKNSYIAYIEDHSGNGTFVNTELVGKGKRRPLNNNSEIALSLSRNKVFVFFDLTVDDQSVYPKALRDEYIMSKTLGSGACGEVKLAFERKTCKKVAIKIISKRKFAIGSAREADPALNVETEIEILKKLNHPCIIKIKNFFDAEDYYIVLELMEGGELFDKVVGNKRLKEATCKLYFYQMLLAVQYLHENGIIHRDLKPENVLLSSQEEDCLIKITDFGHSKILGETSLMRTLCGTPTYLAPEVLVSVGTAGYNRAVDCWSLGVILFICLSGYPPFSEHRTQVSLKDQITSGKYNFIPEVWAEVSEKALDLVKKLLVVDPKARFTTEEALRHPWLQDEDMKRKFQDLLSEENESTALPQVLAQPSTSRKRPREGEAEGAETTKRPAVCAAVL
Chain of C-TAK1 (P27448 whole entry): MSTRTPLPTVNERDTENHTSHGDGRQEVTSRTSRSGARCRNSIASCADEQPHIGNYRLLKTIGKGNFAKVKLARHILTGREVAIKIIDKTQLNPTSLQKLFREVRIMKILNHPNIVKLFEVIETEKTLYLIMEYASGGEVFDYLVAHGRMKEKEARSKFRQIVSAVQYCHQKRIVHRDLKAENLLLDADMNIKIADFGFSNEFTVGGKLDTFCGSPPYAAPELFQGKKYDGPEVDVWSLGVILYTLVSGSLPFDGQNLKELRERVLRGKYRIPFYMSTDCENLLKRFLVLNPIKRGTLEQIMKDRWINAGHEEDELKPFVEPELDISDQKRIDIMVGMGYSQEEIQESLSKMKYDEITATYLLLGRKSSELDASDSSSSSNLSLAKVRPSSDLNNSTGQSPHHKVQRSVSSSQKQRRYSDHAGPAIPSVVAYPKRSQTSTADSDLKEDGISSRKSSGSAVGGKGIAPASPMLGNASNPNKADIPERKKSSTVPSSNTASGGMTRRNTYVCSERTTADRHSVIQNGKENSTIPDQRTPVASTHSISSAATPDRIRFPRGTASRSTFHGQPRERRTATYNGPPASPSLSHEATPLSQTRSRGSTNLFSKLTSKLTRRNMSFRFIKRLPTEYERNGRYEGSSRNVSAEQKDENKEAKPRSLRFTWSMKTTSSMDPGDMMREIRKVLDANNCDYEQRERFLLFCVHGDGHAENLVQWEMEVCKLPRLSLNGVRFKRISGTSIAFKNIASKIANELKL
Chain of MAPKAPK2 (P49137 whole entry): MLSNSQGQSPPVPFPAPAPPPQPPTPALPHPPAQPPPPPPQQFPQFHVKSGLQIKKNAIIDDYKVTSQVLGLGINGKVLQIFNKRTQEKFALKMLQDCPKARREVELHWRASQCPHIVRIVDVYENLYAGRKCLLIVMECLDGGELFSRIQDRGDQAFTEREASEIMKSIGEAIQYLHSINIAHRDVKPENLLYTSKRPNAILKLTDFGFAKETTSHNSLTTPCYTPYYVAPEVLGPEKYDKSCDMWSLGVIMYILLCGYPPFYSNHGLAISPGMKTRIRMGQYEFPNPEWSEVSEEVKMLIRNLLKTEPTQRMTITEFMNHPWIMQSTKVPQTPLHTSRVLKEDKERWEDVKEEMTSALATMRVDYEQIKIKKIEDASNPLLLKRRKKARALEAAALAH
Chain of KIT (P10721 26-976): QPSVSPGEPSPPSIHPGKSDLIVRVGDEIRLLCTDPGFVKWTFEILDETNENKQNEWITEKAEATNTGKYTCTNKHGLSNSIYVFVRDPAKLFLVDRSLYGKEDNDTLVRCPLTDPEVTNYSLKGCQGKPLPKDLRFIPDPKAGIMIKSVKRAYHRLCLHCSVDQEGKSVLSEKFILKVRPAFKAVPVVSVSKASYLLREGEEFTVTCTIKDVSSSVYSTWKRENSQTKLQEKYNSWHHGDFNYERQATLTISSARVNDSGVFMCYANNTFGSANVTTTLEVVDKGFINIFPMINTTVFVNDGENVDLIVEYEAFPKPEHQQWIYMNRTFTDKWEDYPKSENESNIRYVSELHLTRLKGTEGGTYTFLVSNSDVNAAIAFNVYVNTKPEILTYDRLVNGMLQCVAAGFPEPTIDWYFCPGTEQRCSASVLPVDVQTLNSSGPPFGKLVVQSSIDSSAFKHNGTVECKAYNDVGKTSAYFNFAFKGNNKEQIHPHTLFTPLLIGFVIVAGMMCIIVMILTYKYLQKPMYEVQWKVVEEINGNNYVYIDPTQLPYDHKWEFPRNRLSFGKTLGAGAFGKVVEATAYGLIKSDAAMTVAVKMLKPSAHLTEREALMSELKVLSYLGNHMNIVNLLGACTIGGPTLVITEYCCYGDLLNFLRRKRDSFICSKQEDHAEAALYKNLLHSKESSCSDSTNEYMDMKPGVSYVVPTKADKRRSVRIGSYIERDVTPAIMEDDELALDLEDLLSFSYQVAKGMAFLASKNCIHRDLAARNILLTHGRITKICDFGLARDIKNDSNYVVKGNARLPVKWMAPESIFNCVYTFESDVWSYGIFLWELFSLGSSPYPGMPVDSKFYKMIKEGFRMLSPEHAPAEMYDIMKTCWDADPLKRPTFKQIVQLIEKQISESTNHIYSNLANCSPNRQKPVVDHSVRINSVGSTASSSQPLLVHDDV

In the case of `Cc1csc(-c2ccc3nccc(Nc4ccc(N5CCN(C)CC5)cc4)c3c2)c1` [N-(4-(4-methylpiperazin-1-yl)phenyl)-6-(4-methylthiophen-2-yl)quinolin-4-amine], the Activity [1] is reported as “PRAK”, the Activity [2] is reported as “CHEK2” and the Activity [3] is reported as “NEK2”. For the same compound, the Activity [4] was “MAPKAPK2”.

In the case of `COc1cccc(-c2ccc3nccc(Nc4ccc(N5CCN(C)CC5)cc4)c3c2)c1` [6-(3-methoxyphenyl)-N-(4-(4-methylpiperazin-1-yl)phenyl)quinolin-4-amine], the Activity [5] is reported as “DYRK2”, the Activity [1] is reported as “PRAK” and the Activity [3] is reported as “NEK2”.

With `C=Cc1ccc(-c2ccc3nccc(Nc4ccc(N5CCN(C)CC5)cc4)c3c2)cc1` [N-(4-(4-methylpiperazin-1-yl)phenyl)-6-(4-vinylphenyl)quinolin-4-amine] the Activity [1] was “PRAK”, the Activity [2] was “CHEK2” and the Activity [3] was “NEK2”. The Activity [4] was “MAPKAPK2”.

For `COc1ccc(-c2ccc3nccc(Nc4ccc(N5CCN(CCN(C)C)CC5)cc4)c3c2)cc1` [N-(4-(4-(2-(dimethylamino)ethyl)piperazin-1-yl)phenyl)-6-(4-methoxyphenyl)quinolin-4-amine], the Activity [6] was “C-TAK1”, the Activity [5] was “DYRK2” and the Activity [4] was “MAPKAPK2”.

For `CN1CCN(c2ccc(Nc3ccnc4ccc(-c5ccc(Oc6ccccc6)cc5)cc34)cc2)CC1` [N-(4-(4-methylpiperazin-1-yl)phenyl)-6-(4-phenoxyphenyl)quinolin-4-amine], the Activity [6] was “C-TAK1”, the Activity [1] was “PRAK” and the Activity [4] was “MAPKAPK2”.

With `CN1CCN(c2ccc(Nc3ccnc4ccc(-c5ccco5)cc34)cc2)CC1` [6-(furan-2-yl)-N-(4-(4-methylpiperazin-1-yl)phenyl)quinolin-4-amine] the Activity [1] was “PRAK”, the Activity [2] was “CHEK2” and the Activity [4] was “MAPKAPK2”.

For `COc1ccc(-c2ccc3nccc(Nc4ccc(N5CCN(CCCO)CC5)cc4)c3c2)cc1` [3-(4-(4-(6-(4-methoxyphenyl)quinolin-4-ylamino)phenyl)piperazin-1-yl)propan-1-ol], the Activity [5] was “DYRK2” and the Activity [4] was “MAPKAPK2”.

In the case of `COc1ccc(-c2ccc3nccc(Nc4ccc(N5CCN(C)CC5)cc4)c3c2)cc1OC` [6-(3,4-dimethoxyphenyl)-N-(4-(4-methylpiperazin-1-yl)phenyl)quinolin-4-amine], the Activity [5] is reported as “DYRK2”, the Activity [1] is reported as “PRAK” and the Activity [3] is reported as “NEK2”. The Activity [4] was “MAPKAPK2”.

`COc1ccc(-c2ccc3nccc(Nc4ccc(N5CCN(C)CC5)cc4)c3c2)cc1` [6-(4-methoxyphenyl)-N-(4-(4-methylpiperazin-1-yl)phenyl)quinolin-4-amine] was tested, and the Activity [5] was “DYRK2”, the Activity [1] was “PRAK” and the Activity [3] was “NEK2”. The Activity [4] was “MAPKAPK2”.

With `N#Cc1ccc(-c2ccc3nccc(Nc4ccc(C5CCNCC5)cc4)c3c2)cc1` [4-(4-(4-(piperidin-4-yl)phenylamino)quinolin-6-yl)benzonitrile] the Activity [7] was “KIT”.

`CN1CCN(c2ccc(Nc3ccnc4ccc(-c5cccc(-c6ccccc6)c5)cc34)cc2)CC1` [6-(biphenyl-3-yl)-N-(4-(4-methylpiperazin-1-yl)phenyl)quinolin-4-amine] was tested, and the Activity [6] was “C-TAK1”, the Activity [1] was “PRAK” and the Activity [4] was “MAPKAPK2”.

`CN(C)C1CCN(c2ccc(Nc3ccnc4ccc(-c5ccc(C#N)cc5)cc34)cc2)CC1` [4-(4-(4-(4-(dimethylamino)piperidin-1-yl)phenylamino)quinolin-6-yl)benzonitrile] was tested, and the Activity [7] was “KIT”.

In the case of `Cc1cc(-c2ccc3nccc(Nc4ccc(N5CCN(C)CC5)cc4)c3c2)ccc1F` [6-(4-fluoro-3-methylphenyl)-N-(4-(4-methylpiperazin-1-yl)phenyl)quinolin-4-amine], the Activity [6] is reported as “C-TAK1”, the Activity [1] is reported as “PRAK” and the Activity [3] is reported as “NEK2”. The Activity [4] was “MAPKAPK2”.

For `CCSc1ccc(-c2ccc3nccc(Nc4ccc(N5CCN(C)CC5)cc4)c3c2)cc1` [6-(4-(ethylthio)phenyl)-N-(4-(4-methylpiperazin-1-yl)phenyl)quinolin-4-amine], the Activity [6] was “C-TAK1”, the Activity [1] was “PRAK” and the Activity [3] was “NEK2”. The Activity [4] was “MAPKAPK2”.

`CC(C)N1CCN(c2ccc(Nc3ccnc4ccc(-c5ccccc5)cc34)cc2)CC1` [N-(4-(4-isopropylpiperazin-1-yl)phenyl)-6-phenylquinolin-4-amine] was tested, and the Activity [7] was “KIT” and the Activity [4] was “MAPKAPK2”.

For `CCOc1cccc(-c2ccc3nccc(Nc4ccc(N5CCN(C)CC5)cc4)c3c2)c1` [6-(3-ethoxyphenyl)-N-(4-(4-methylpiperazin-1-yl)phenyl)quinolin-4-amine], the Activity [1] was “PARK”, the Activity [2] was “CHEK2” and the Activity [3] was “NEK2”. The Activity [4] was “MAPKAPK2”.
